Laboratory results: PMC12775434, “Ultra-large virtual screening unveils potent agonists of the neuromodulatory orphan receptor GPR139” (Nature Communications, 2025)
Values joined by “and” are separate entries in the source; they are usually repeats but may differ in a detail not shown here. Equal entries are not always repeated. Where two headings read alike, the source gives them in different places.

Tests used:
Type in all cases: cell-based
GPR139 [1] = target: T1, GPR139 (Homo sapiens, UniProt Q6DWJ6); test: Ca2+ mobilization assay, agonist mode, stable GPR139-CHOk1 cell line; settings: for Emax: normalized to Lundbeck Cmp 1a, read-out: Emax (%) Ca2+
T1 sequence (Q6DWJ6 1-353): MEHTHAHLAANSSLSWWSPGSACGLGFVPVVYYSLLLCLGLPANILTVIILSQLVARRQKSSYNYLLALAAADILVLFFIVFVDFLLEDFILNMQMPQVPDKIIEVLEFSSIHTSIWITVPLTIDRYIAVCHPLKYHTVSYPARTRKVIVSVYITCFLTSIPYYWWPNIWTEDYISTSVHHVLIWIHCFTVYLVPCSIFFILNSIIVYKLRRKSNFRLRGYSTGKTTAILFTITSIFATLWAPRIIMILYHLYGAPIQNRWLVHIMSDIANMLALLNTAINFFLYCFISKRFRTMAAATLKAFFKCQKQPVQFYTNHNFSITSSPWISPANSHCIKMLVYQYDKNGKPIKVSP
Method in brief: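 Agonist activity of compounds is assessed in stably transfected CHO-K1 cells using the calcium dye Fluo-4 at 37 °C in HEPES-buffered HBSS (pH 7.4). Efficacy is expressed relative to the reference agonist Lundbeck Cmp 1a, set as 100%.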

[2] = target: T2, human muscarinic acetylcholine M1 receptor (M1R) (Homo sapiens, UniProt P11229); test: Ca2+ mobilization counter-screen in M1R-CHOk1 cells
T2 sequence (P11229 1-460): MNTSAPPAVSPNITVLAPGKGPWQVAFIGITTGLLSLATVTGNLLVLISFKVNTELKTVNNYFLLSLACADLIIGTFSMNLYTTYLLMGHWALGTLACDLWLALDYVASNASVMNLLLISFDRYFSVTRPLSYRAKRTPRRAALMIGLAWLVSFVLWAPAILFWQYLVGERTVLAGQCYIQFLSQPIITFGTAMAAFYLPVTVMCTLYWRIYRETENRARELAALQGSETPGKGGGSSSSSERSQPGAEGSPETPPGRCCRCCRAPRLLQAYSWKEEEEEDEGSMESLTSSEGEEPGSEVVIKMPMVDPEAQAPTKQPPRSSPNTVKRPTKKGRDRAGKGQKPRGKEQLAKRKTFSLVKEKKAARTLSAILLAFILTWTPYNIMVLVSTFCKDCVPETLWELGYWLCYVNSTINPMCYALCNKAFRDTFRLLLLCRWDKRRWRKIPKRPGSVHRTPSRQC
Method in brief: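 M1R-CHOk1 cells seeded 20–24 h, loaded with 2 µM Fluo-4 AM (2.5 mM probenecid, 0.01% Pluronic F-68) for 1 h at 37 °C in HBSS/20 mM HEPES pH 7.4. Compounds added after baseline (≤0.3% DMSO); calcium fluorescence read at 37 °C, ex 485/em 525 nm.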

GPR139 [3] = target: T1, GPR139; test: Ca2+ mobilization assay, antagonist mode (EC80 800 nM Lundbeck Cmp 1a after 20 min preincubation), GPR139-CHOk1
Method in brief: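 Fluo-4-loaded GPR139-CHOk1 cells in HEPES-buffered HBSS (pH 7.4, 2.5 mM probenecid) given test compounds at 10 µM, then after 20 min challenged with 800 nM Lundbeck Cmp 1a (EC80). Calcium fluorescence read at 37 °C, 485/525 nm.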

[4] = Agonist mode, individual replicates (Supplementary Figure 4)
[5] = Supplementary Table 2, mean ± SEM, read-out: pEC50 Ca2+ (converted)
[6] = Supplementary Table 2, mean ± SEM
[7] = log [Compound] M = -4.5, individual replicate columns
[8] = log [Compound] M = -5.0, individual replicate columns
[9] = log [Compound] M = -5.5, individual replicate columns
[10] = log [Compound] M = -6.0, individual replicate columns
[11] = log [Compound] M = -6.5, individual replicate columns
[12] = log [Compound] M = -7.0, individual replicate columns
[13] = log [Compound] M = -7.5, individual replicate columns
[14] = log [Compound] M = -8.0, individual replicate columns
[15] = log [Compound] M = -8.5, individual replicate columns
[16] = log [Compound] M = -9.0, individual replicate columns
[17] = individual replicates (Supplementary Figure 5)
[18] = individual replicates (Supplementary Figure 4)

Row | Compound | Ca2+ signal (% of Cmp 1a) (GPR139 [1]; [4]) | EC50 (GPR139 [1]; [5]) | Emax (GPR139 [1]; [6]) | Ca2+ signal (% of Cmp 1a) (GPR139 [1]; [7]) | Ca2+ signal (% of Cmp 1a) (GPR139 [1]; [8]) | Ca2+ signal (% of Cmp 1a) (GPR139 [1]; [9]) | Ca2+ signal (% of Cmp 1a) (GPR139 [1]; [10]) | Ca2+ signal (% of Cmp 1a) (GPR139 [1]; [11]) | Ca2+ signal (% of Cmp 1a) (GPR139 [1]; [12]) | Ca2+ signal (% of Cmp 1a) (GPR139 [1]; [13]) | Ca2+ signal (% of Cmp 1a) (GPR139 [1]; [14]) | Ca2+ signal (% of Cmp 1a) (GPR139 [1]; [15]) | Ca2+ signal (% of Cmp 1a) (GPR139 [1]; [16]) | Ca2+ signal (% of Carbachol) [2, 17] | Ca2+ signal (% of Cmp 1a) (GPR139 [3]; [18]) | also measured
1 | Cc1nc(-c2nc(CC(=O)NC(C)c3ccccc3)no2)cs1 (centres unmarked) [Compound 1.15, CC(C1=CC=CC=C1)NC(CC2=NOC(C3=CSC(C)=N3)=N2)=O] | 96 % of Cmp 1a and 108 % of Cmp 1a and 104 % of Cmp 1a | 0.501 µM | 105 ± 4% | 94 % of Cmp 1a and 99 % of Cmp 1a and 118 % of Cmp 1a and 102 % of Cmp 1a | 101 % of Cmp 1a and 90 % of Cmp 1a and 112 % of Cmp 1a and 100 % of Cmp 1a | 104 % of Cmp 1a and 84 % of Cmp 1a and 109 % of Cmp 1a and 112 % of Cmp 1a | 70 % of Cmp 1a and 62 % of Cmp 1a and 81 % of Cmp 1a and 93 % of Cmp 1a | 46 % of Cmp 1a (2×) and 31 % of Cmp 1a and 57 % of Cmp 1a | 12 % of Cmp 1a and 11 % of Cmp 1a and 21 % of Cmp 1a and 17 % of Cmp 1a | 8 % of Cmp 1a and -0.333 % of Cmp 1a and 13 % of Cmp 1a and 5.67 % of Cmp 1a | 1.67 % of Cmp 1a and -3.67 % of Cmp 1a and 8 % of Cmp 1a and -2 % of Cmp 1a | 1 % of Cmp 1a and 15 % of Cmp 1a and 11 % of Cmp 1a and 10 % of Cmp 1a | 0.667 % of Cmp 1a and 7 % of Cmp 1a (2×) and 12 % of Cmp 1a | 3 % of Carbachol and 14 % of Carbachol | 7 % of Cmp 1a and 2.33 % of Cmp 1a | fold decrease in potency relative to parent compound 1 (GPR139 [1]; Ca2+ mobilization EC50): 3- to 25 fold
2 | Cc1ccc(-c2nc(CC(=O)NC(C)c3ccccc3)no2)cc1 (centres unmarked) [Compound 1.14, CC(C1=CC=CC=C1)NC(CC2=NOC(C3=CC=C(C)C=C3)=N2)=O] | 71 % of Cmp 1a and 82 % of Cmp 1a and 46 % of Cmp 1a |  | 89 ± 15% | 97 % of Cmp 1a and 92 % of Cmp 1a and 89 % of Cmp 1a and 44 % of Cmp 1a | 79 % of Cmp 1a and 86 % of Cmp 1a and 77 % of Cmp 1a and 48 % of Cmp 1a | 61 % of Cmp 1a and 79 % of Cmp 1a and 69 % of Cmp 1a and 48 % of Cmp 1a | 61 % of Cmp 1a and 52 % of Cmp 1a and 58 % of Cmp 1a and 40 % of Cmp 1a | 42 % of Cmp 1a and 32 % of Cmp 1a and 38 % of Cmp 1a and 28 % of Cmp 1a | 17 % of Cmp 1a and 12 % of Cmp 1a and 27 % of Cmp 1a and 22 % of Cmp 1a | 5.33 % of Cmp 1a and 7 % of Cmp 1a and 30 % of Cmp 1a and -6 % of Cmp 1a | 12 % of Cmp 1a and 2.67 % of Cmp 1a (2×) and 0.667 % of Cmp 1a | -1.67 % of Cmp 1a and -4 % of Cmp 1a and 1.67 % of Cmp 1a | 8 % of Cmp 1a and 10 % of Cmp 1a and -3.67 % of Cmp 1a and 1 % of Cmp 1a | -9 % of Carbachol and -1 % of Carbachol and 10 % of Carbachol | 7 % of Cmp 1a and -0.667 % of Cmp 1a and 13 % of Cmp 1a | EC50 (GPR139 [1]; GPR139-CHOk1, read-out: EC50, Ca2+ mobilization): 0.4 µM
3 | C[C@H](NC(=O)c1ccc(Cn2cc(Cl)cn2)o1)c1ccccc1 [Compound 8, C[C@H](NC(=O)C1=CC=C(CN2C=C(Cl)C=N2)O1)C=3C=CC=CC3] |  |  |  |  |  |  |  |  |  |  |  |  |  |  |  | Ca2+ signal (% of Cmp 1a) (GPR139 [1]; 0.1 µM, individual replicates (Supplementary Figure 3)): -2.0 % of Cmp 1a and -2.7 % of Cmp 1a; Ca2+ signal (% of Cmp 1a) (GPR139 [1]; 1 µM, individual replicates (Supplementary Figure 3)): 3.0 % of Cmp 1a and 3.4 % of Cmp 1a; Ca2+ signal (% of Cmp 1a) (GPR139 [1]; 10 µM, individual replicates (Supplementary Figure 3)): 24.4 % of Cmp 1a and 22.7 % of Cmp 1a; Ca2+ signal (% of Cmp 1a) (GPR139 [1]; Agonist mode, individual replicates (Supplementary Figure 1)): 47 % of Cmp 1a and 45 % of Cmp 1a and 51 % of Cmp 1a; Ca2+ signal (% of Cmp 1a) (GPR139 [1]; primary screen, 10 µM compound, agonist mode, three columns = independent experiments): 47 % of Cmp 1a and 45 % of Cmp 1a and 51 % of Cmp 1a; Ca2+ signal (% of Carbachol) ([2]; individual replicates (Supplementary Figure 2)): -17 % of Carbachol and 6 % of Carbachol; Ca2+ signal (% of Cmp 1a) (GPR139 [3]; individual replicates (Supplementary Figure 1)): 48.2832 % of Cmp 1a and 57.355 % of Cmp 1a and 45.2011 % of Cmp 1a
4 | Cc1cc(-c2nc(CC(=O)NC(C)c3ccccc3)no2)cs1 (centres unmarked) [Compound 1.4, CC(C1=CC=CC=C1)NC(CC2=NOC(C3=CSC(C)=C3)=N2)=O] | 100 % of Cmp 1a and 61 % of Cmp 1a and 92 % of Cmp 1a | 0.1 µM | 114 ± 6% | 106 % of Cmp 1a and 107 % of Cmp 1a and 115 % of Cmp 1a and 110 % of Cmp 1a | 109 % of Cmp 1a and 91 % of Cmp 1a and 131 % of Cmp 1a and 113 % of Cmp 1a | 103 % of Cmp 1a and 82 % of Cmp 1a and 119 % of Cmp 1a and 123 % of Cmp 1a | 107 % of Cmp 1a and 79 % of Cmp 1a and 97 % of Cmp 1a and 127 % of Cmp 1a | 81 % of Cmp 1a and 66 % of Cmp 1a and 80 % of Cmp 1a and 103 % of Cmp 1a | 48 % of Cmp 1a and 47 % of Cmp 1a and 54 % of Cmp 1a and 90 % of Cmp 1a | 24 % of Cmp 1a and 22 % of Cmp 1a and 35 % of Cmp 1a and 47 % of Cmp 1a | 5.33 % of Cmp 1a and 2.67 % of Cmp 1a and 18 % of Cmp 1a and 26 % of Cmp 1a | 2.67 % of Cmp 1a (2×) and 7 % of Cmp 1a (2×) | 6 % of Cmp 1a and 1.67 % of Cmp 1a and 13 % of Cmp 1a and 4.33 % of Cmp 1a | -1 % of Carbachol and 20 % of Carbachol and -5 % of Carbachol | -0.333 % of Cmp 1a and -4 % of Cmp 1a and -17 % of Cmp 1a | 
5 | Cc1csc(-c2nc(CC(=O)NC(C)c3ccccc3)no2)c1 (centres unmarked) [Compound 1.11, CC(C1=CC=CC=C1)NC(CC2=NOC(C3=CC(C)=CS3)=N2)=O] | 83 % of Cmp 1a and 63 % of Cmp 1a and 71 % of Cmp 1a | 0.2 µM | 105 ± 10% | 119 % of Cmp 1a and 103 % of Cmp 1a and 72 % of Cmp 1a and 99 % of Cmp 1a | 117 % of Cmp 1a and 110 % of Cmp 1a and 94 % of Cmp 1a and 97 % of Cmp 1a | 109 % of Cmp 1a and 87 % of Cmp 1a and 67 % of Cmp 1a and 96 % of Cmp 1a | 94 % of Cmp 1a and 70 % of Cmp 1a and 59 % of Cmp 1a and 79 % of Cmp 1a | 69 % of Cmp 1a and 58 % of Cmp 1a and 32 % of Cmp 1a and 65 % of Cmp 1a | 58 % of Cmp 1a and 48 % of Cmp 1a and 20 % of Cmp 1a and 43 % of Cmp 1a | 38 % of Cmp 1a and -18 % of Cmp 1a and -19 % of Cmp 1a and 30 % of Cmp 1a | 31 % of Cmp 1a and 1.33 % of Cmp 1a and -4 % of Cmp 1a and 6.33 % of Cmp 1a | 6 % of Cmp 1a and 1.67 % of Cmp 1a and 4.67 % of Cmp 1a and 3.33 % of Cmp 1a | 10 % of Cmp 1a and 7 % of Cmp 1a and -2.67 % of Cmp 1a and 1.33 % of Cmp 1a | -8 % of Carbachol and 27 % of Carbachol and -10 % of Carbachol | 0 % of Cmp 1a and -3 % of Cmp 1a and -25 % of Cmp 1a | 
